1 compound from ChEMBL document CHEMBL5042506, “Discovery of Orally Available Retinoic Acid Receptor-Related Orphan Receptor γ-t/Dihydroorotate Dehydrogenase Dual Inhibitors for the Treatment of Refractory Inflammatory Bowel Disease” (J Med Chem, 2022) can be followed below.

Type in all cases: ADME, organism-based
A short description of series [1]: Cmax in ICR mouse at 5 mg/kg, po measured over 24 hrs by LC-MS/MS analysis. Details: route oral, dose 5 mg/kg, time >24. Particulars: in vivo.
Series [2] is described as follows: Cmax in ICR mouse at 1 mg/kg, iv measured over 24 hrs by LC-MS/MS analysis. Also noted: route intravenous, dose 1 mg/kg, time >24. Particulars: in vivo.
The nature of series [3]: Oral bioavailability in ICR mouse at 5 mg/kg measured over 24 hrs by LC-MS/MS analysis. Particulars: in vivo.
Series [4] can be described thus: Clearance in ICR mouse at 1 mg/kg, iv measured over 24 hrs by LC-MS/MS analysis. Particulars: in vivo.
Series [5] is described as follows: Volume of distribution at steady state in ICR mouse at 1 mg/kg, iv measured over 24 hrs by LC-MS/MS analysis. Particulars: in vivo, read-out: Vdss.
A short description of series [6]: AUC (0 to last) in ICR mouse at 1 mg/kg, iv measured over 24 hrs by LC-MS/MS analysis. Also noted: route intravenous, dose 1 mg/kg, time >24. To be noted: in vivo.
A short description of series [7]: AUC (0 to last) in ICR mouse at 5 mg/kg, po measured over 24 hrs by LC-MS/MS analysis. Details: route oral, dose 5 mg/kg, time >24. Particulars: in vivo.

Each structure is given as a SMILES string.

As for `Cc1c(Nc2nc3c(s2)CCCC3O)cc(Cl)cc1OC1CCN(C(=O)CC(C(F)(F)F)C(F)(F)F)CC1` (racemic), the Cmax was found to be 213 ng/mL in series [1] and 590 ng/mL in series [2]. In series [3], this compound returned a bioavailability of 18.9%. In series [4], the clearance amounted to 26.6 mL/min/kg. In addition, the Vd in series [5] is 2.95 L/kg. The AUC(0-t) at 24 h in series [6] was 634 ng·h/mL; in series [7] it was 599 ng·h/mL.
